Measurements: publication PMC10761072, “Post-transcriptional capping generates coenzyme A-linked RNA” (RNA Biology, 2023)

Molecular target: T1, phosphopantetheine adenylyltransferase (PPAT, CoaD) (Escherichia coli, UniProt P0A6I6)
T1 construct: recombinant full-length enzyme expressed from coaD plasmid and purified; hexamer
Assay: capping of […]-labelled 5-mer pppRNA with pPant, denaturing PAGE
Assay type: biochemical
Details: read-out: half-maximal inhibition

T1 sequence (P0A6I6 whole entry): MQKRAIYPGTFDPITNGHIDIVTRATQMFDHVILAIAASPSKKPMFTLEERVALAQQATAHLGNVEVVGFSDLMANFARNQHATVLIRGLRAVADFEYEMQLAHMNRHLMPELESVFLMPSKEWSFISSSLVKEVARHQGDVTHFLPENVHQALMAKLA

IC50: ~5 µM
SMILES: Nc1ncnc2c1ncn2[C@@H]1O[C@H](COP(=O)(O)OP(=O)(O)OP(=O)(O)O)[C@@H](O)[C@H]1O [ATP]
